pIC50: −log10 of the molar value. Structures can show the parent of a compound that is named as a salt. Where two headings read alike, the source gives them in different places. Each block holds one compound with its values, some of them ahead of it.
Columns and labels:
Assay type in all cases: biochemical
human PDE4D3 = human PDE4D3 (Homo sapiens (Human), UniProt Q08499); assay: PDE4D3 Scintillation Proximity Assay (SPA), inhibition of enzyme activity; details: read-out: Human PDE4D FL
Procedure: (§1) The PDE4A, PDE4B, PDE4C and PDE4D binding affinity for the compounds of the present invention was determined utilizing the following biological assay(s):
A portion of the human PDE4D3 coding sequence (amino acids 50 to 672 from the sequence with accession number Q08499-2) was cloned into the baculovirus expression vector pFastBac (Invitrogen) engineered to include a C-terminal His6 affinity tag to aid in purification as described in Seeger, T. F. et al., Brain Research 985 (2003) 113-126. The recombinant Bacmid was isolated and used to transfect insect cells to generate a viral stock. To generate cell paste for purification, insect cells were infected and cells were harvested 72 hours after infection. Insect cell paste was lysed and after centrifugation, the supernatant was chromatographed on Ni-NTA agarose (Qiagen) as described in Seeger, T. F. et al., Brain Research 985 (2003) 113-126. Ni-NTA agarose eluting fractions containing PDE4 were pooled, diluted with Q Buffer A (50 mM Tris HCl pH 8, 4% glycerol, 100 mM NaCl, 1 mM TCEP, Protease inhibitors EDTA-free (Roche)) to reduce NaCl to ˜200 mM, and loaded on a Q Sepharose (GE Healthcare) column. After washing with Q buffer A to baseline, PDE4D was eluted with a gradient from 10% to 60% of Buffer B (50 mM Tris HCl pH 8, 1 M NaCl, 4% glycerol, 1 mM TCEP). PDE4D fractions were analyzed by SDS-PAGE Coomassie blue staining, pooled based on purity, frozen and stored at −80° C.
(§2) The PDE4A3, PDE4B1, PDE4C1 and PDE4D3 assays use the Scintillation Proximity Assay (SPA) technology to measure the inhibition of human recombinant PDE4A1, PDE4B3, PDE4C1, and PDE4D3 enzyme activity by compounds in vitro. The PDE4A1, PDE4B3, PDE4C1, and PDE4D3 assays are run in parallel using identical parameters, except for the concentration of enzyme ([…]). The assays are performed in a 384-well format with 50 uL assay buffer (50 mM TRIS pH7.5; 1.3 mM MgCl2; 0.01% Brij) containing enough PDE4A3, PDE4B1, PDE4C1, and PDE4D to convert ˜20% of substrate (1 μM cAMP consisting of 20 nM 3H-cAMP+[…] cold cAMP) and a range of inhibitors. Reactions are incubated for 30 min at 25° C. The addition of 20 uL of 8 mg/ml yitrium silicate SPA beads (Perkin Elmer) stops the reaction. The plates are sealed (TopSeal, Perkin Elmer) and the beads are allowed to settle for 8 hrs, after which they are read on the Trilux Microbeta overnight.

Human PDE4B1 = Human PDE4B1 (Homo sapiens (Human), UniProt Q07343, S133E/S654A/S659A/S661A); assay: PDE4B1 Scintillation Proximity Assay (SPA), inhibition of enzyme activity; details: read-out: Human PDE4B FL
Procedure: as §1
The recombinant Bacmid was isolated and used to transfect insect cells to generate a viral stock. To generate cell paste for purification, insect cells were infected with the virus stock and cells were harvested 72 hours after infection as described in Seeger, T. F. et al., Brain Research 985 (2003) 113-126. Insect cell paste was lysed and after centrifugation, the supernatant was chromatographed on Ni-NTA agarose (Qiagen) as described in Seeger, T. F. et al., Brain Research 985 (2003) 113-126. Ni-NTA agarose eluting fractions containing PDE4 were pooled, diluted with Q buffer A (20 mM Tris HCl pH 8, 5% glycerol, 1 mM TCEP) to reduce NaCl to ˜100 mM and loaded on a Source 15Q (GE Healthcare) column. After washing with Q buffer A/10% buffer B to baseline, PDE4D was eluted with a gradient from 10% to 60% of Buffer B (20 mM Tris HCl pH 8, 1 M NaCl, 5% glycerol, 1 mM TCEP). PDE4D fractions were analyzed by SDS-PAGE Coomassie blue staining, pooled based on purity, frozen and stored at −80° C.
as §2

Human PDE4A3 = Human PDE4A3 (Homo sapiens (Human), UniProt P27815); assay: PDE4A3 Scintillation Proximity Assay (SPA), inhibition of enzyme activity; details: Table 10, geometric mean of 2-9 determinations unless otherwise indicated, read-out: Human PDE4A FL
Procedure: as §1
The recombinant Bacmid was isolated and used to transfect insect cells to generate a viral stock. To generate cell paste for purification, insect cells were infected with the virus stock and cells were harvested 72 hours after infection. Insect cell paste was lysed and after centrifugation, the supernatant was batch bound to Ni-NTA agarose (GE Healthcare) and eluted with 250 mM imidazole. This eluate was diluted with FLAG buffer (50 mM Tris HCL pH 7.5, 100 mM NaCl, 5% Glycerol, 1 mM TCEP with protease inhibitors) and batch bound to ant-FLAG M2 agarose (Sigma) overnight at 4° C. The agarose was packed into a column, washed with buffer and eluted with buffer containing elute using 250 ug/ml Flag-peptide. Fractions were analyzed using SDS-PAGE Coomassie blue staining and pooled based on purity. Pooled fractions were chromatographed on a S200 120 ml column (GE Healthcare) in 50 mM Tris HCL pH 7.5, 150 mM NaCl, 10% Glycerol, 2 mM TCEP with protease inhibitors. PDE4A3 fractions were analyzed by SDS-PAGE Coomassie blue staining, pooled based on purity, dialyzed against 50 mM Tris HCL pH 7.5, 100 mM NaCl, 20% Glycerol, 2 mM TCEP, frozen and stored at −80° C.
as §2

[1] = Table 9, geometric mean of 2-9 determinations unless otherwise indicated
[2] = Table 10, geometric mean of 2-9 determinations unless otherwise indicated

Chain of Human PDE4B1 (Q07343 122-736 S133E/S654A/S659A/S661A): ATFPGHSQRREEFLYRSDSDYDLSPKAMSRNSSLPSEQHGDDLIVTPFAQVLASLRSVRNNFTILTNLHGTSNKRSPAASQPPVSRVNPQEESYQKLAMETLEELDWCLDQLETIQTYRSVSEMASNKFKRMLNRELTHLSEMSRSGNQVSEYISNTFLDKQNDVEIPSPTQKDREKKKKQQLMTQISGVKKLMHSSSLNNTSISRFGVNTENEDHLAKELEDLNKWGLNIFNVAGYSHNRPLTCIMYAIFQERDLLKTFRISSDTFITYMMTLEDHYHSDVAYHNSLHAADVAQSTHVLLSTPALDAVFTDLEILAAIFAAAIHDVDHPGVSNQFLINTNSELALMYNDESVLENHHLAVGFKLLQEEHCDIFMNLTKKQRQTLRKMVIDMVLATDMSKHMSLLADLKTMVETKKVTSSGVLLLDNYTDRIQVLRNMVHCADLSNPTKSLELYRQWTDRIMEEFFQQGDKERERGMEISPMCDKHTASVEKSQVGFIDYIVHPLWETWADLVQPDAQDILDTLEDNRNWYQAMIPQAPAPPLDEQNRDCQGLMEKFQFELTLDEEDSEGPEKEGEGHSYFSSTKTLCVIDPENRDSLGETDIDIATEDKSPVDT
Chain of human PDE4D3 (Q08499 186-808): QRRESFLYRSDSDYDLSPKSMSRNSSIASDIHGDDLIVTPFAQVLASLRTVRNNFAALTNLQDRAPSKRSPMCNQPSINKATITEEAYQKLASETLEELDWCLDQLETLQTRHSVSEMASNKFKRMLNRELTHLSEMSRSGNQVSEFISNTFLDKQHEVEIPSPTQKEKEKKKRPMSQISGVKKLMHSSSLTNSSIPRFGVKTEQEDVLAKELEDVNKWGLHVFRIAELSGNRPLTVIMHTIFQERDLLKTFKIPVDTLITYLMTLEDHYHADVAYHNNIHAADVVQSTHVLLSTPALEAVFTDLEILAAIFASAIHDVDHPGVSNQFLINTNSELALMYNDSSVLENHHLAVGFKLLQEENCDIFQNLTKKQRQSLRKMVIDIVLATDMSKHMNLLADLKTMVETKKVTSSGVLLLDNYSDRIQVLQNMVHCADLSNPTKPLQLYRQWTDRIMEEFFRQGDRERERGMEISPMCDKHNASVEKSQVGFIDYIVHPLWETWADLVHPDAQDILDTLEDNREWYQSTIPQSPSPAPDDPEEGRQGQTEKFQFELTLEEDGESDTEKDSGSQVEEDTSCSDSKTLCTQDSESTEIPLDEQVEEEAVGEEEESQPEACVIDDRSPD
Chain of Human PDE4A3 (P27815 other isoform, or with tags, fused parts or gaps): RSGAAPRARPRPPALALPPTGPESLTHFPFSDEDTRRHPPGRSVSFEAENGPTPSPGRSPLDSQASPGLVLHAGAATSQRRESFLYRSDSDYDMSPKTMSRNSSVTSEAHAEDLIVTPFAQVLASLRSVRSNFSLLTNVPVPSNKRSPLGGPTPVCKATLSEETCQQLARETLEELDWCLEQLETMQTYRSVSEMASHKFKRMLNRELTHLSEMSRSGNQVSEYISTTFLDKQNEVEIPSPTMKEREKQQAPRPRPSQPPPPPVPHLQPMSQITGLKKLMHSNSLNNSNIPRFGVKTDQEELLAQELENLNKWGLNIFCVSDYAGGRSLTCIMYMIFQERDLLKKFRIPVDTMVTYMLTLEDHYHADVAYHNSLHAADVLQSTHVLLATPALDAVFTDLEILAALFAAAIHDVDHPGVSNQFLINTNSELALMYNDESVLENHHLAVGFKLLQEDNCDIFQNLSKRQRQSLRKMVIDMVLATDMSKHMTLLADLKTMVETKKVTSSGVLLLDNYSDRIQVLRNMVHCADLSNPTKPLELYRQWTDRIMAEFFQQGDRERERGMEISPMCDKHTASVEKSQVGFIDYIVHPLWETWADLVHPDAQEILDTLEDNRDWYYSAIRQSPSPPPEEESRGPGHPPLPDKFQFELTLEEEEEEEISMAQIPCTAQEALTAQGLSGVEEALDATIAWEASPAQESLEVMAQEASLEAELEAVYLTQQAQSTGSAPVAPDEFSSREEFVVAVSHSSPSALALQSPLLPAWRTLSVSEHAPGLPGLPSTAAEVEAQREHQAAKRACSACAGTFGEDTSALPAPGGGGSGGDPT

SMILES: O=C1c2c(-c3ccc(Cl)cc3)c3ncccc3n2C[C@H]2CCCN12 [Example 3, (6aR)-12-(4-Chlorophenyl)-6a, 7,8,9-tetrahydro-6H,11H-pyrido[2′,3′:4,5]pyrrolo[1,2-a]pyrrolo[1,2-d]pyrazin-11-one, trifluoroacetate salt]
pIC50 (human PDE4D3; [1]): 6.82
pIC50 (Human PDE4B1; [1]): 8.86

SMILES: O=C1c2c(-c3ccc(Cl)cc3)c3ncccc3n2CCN1c1nnc[nH]1 [Example 5, 10-(4-Chlorophenyl)-8-(4H-1,2,4-triazol-3-yl)-7,8-dihydropyrido[2′,3′:4,5]pyrrolo[1,2-a]pyrazin-9(6H)-one]
pIC50 (human PDE4D3; [1]): 6.32
pIC50 (Human PDE4B1; [1]): 8.23

SMILES: O=c1c2c(-c3ccc(Cl)cc3)c3ncccc3n2ccn1-c1nnc[nH]1 [Example 6, 10-(4-Chlorophenyl)-8-(4H-1,2,4-triazol-3-yl)pyrido[2′,3′:4,5]pyrrolo[1,2-a]pyrazin-9(8H)-one]
pIC50 (human PDE4D3; [1]): 5.57
pIC50 (Human PDE4B1; [1]): 8.08

SMILES: CCCN1CCn2c(c(-c3ccc(Cl)cc3)c3ncccc32)C1=O [Example 17, 10-(4-Chlorophenyl)-8-propyl-7,8-dihydropyrido[2′,3′:4,5]pyrrolo[1,2-a]pyrazin-9(6H)-one]
pIC50 (human PDE4D3; [1]): 7.09
pIC50 (Human PDE4B1; [1]): 9.00

SMILES: O=C1NCCn2c1c(-c1ccc(Cl)cc1)c1ncccc12 [Example 19, 10-(4-Chlorophenyl)-7,8-dihydropyrido[2′,3′:4,5]pyrrolo[1,2-a]pyrazin-9(6H)-one]
pIC50 (human PDE4D3; [1]): 5.80
pIC50 (Human PDE4B1; [1]): 7.73

SMILES: CN1CCn2c(c(-c3ccc(Cl)cc3)c3ncccc32)C1=O [Example 30, 10-(4-Chlorophenyl)-8-methyl-7,8-dihydropyrido[2′,3′:4,5]pyrrolo[1,2-a]pyrazin-9(6H)-one]
pIC50 (human PDE4D3; [1]): 6.10
pIC50 (Human PDE4B1; [1]): 7.55

SMILES: CCN1CCn2c(c(-c3ccc(Cl)cc3)c3ncccc32)C1=O [Example 31, 10-(4-Chlorophenyl)-8-ethyl-7,8-dihydropyrido[2′,3′:4,5]pyrrolo[1,2-a]pyrazin-9(6H)-one]
pIC50 (human PDE4D3; [1]): 7.06
pIC50 (Human PDE4B1; [1]): 8.61

SMILES: O=C1c2c(-c3ccc(Cl)cc3)c3ncccc3n2C[C@@H]2CCCN12 [Example 52, (6aS)-12-(4-Chlorophenyl)-6a,7,8,9-tetrahydro-6H,11H-pyrido[2′,3′:4,5]pyrrolo[1,2-a]pyrrolo[1,2-d]pyrazin-11-one]
pIC50 (human PDE4D3; [1]): 5.95
pIC50 (Human PDE4B1; [1]): 7.91

SMILES: O=C1c2c(-c3ccc(Cl)cc3)c3ncccc3n2CC2CCN12 (stereo not shown) [Example 67, 11-(4-Chlorophenyl)-6,6a,7,8-tetrahydro-10H-azeto[1,2-a]pyrido[2′,3′:4,5]pyrrolo[1,2-d]pyrazin-10-one]
pIC50 (human PDE4D3; [1]): 6.06
pIC50 (Human PDE4B1; [1]): 8.31

SMILES: CC(=O)N1CCn2c(c(-c3ccc(Cl)cc3)c3ncccc32)C1=O [Example 78, 8-Acetyl-10-(4-chlorophenyl)-7,8-dihydropyrido[2′,3′:4,5]pyrrolo[1,2-a]pyrazin-9(6H)-one]
pIC50 (human PDE4D3; [2]): 7.51
pIC50 (Human PDE4B1; [2]): 7.23

SMILES: Cc1ccc(-c2c3n(c4nccnc24)CCN(C2CC2)C3=O)cn1 [Example 83, 8-Cyclopropyl-10-(6-methylpyridin-3-yl)-7,8-dihydropyrrolo[1,2-a:4,5-b′]dipyrazin-9(6H)-one]
pIC50 (human PDE4D3; [2]): < 4.53
pIC50 (Human PDE4B1; [2]): 4.81

SMILES: COc1ncc(-c2c3n(c4nccnc24)CCN(C2CC2)C3=O)cn1 [Example 87, 8-Cyclopropyl-10-(2-methoxypyrimidin-5-yl)-7,8-dihydropyrrolo[1,2-a:4,5-b′]dipyrazin-9(6H)-one]
pIC50 (human PDE4D3; [2]): < 4.54
pIC50 (Human PDE4B1; [2]): 5.58

SMILES: COc1ncc(-c2c3n(c4cncnc24)CCN(C2CC2)C3=O)cn1 [Example 89, 8-Cyclopropyl-10-(2-methoxypyrimidin-5-yl)-7,8-dihydropyrazino[1′,2′:1,5]pyrrolo[3,2-d]pyrimidin-9(6H)-one]
pIC50 (human PDE4D3; [2]): < 4.52
pIC50 (Human PDE4B1; [2]): 5.53

Further lines, results first:

pIC50 (human PDE4D3; [1]): 6.35
pIC50 (Human PDE4B1; [1]): 8.16
SMILES: COc1cc(-c2c3n(c4cccnc24)CCN(C2CC2)C3=O)c(F)cc1Cl [Example 15, 10-(4-Chloro-2-fluoro-5-methoxyphenyl)-8-cyclopropyl-7,8-dihydropyrido[2′,3′: 4,5]pyrrolo[1,2-a]pyrazin-9(6H)-one]

pIC50 (human PDE4D3; [1]): 5.76
pIC50 (Human PDE4B1; [1]): 7.10
SMILES: O=C1c2c(-c3ccsc3)c3ncccc3n2CCN1C1CC1 [Example 39, 8-Cyclopropyl-10-(thiophen-3-yl)-7,8-dihydropyrido[2′,3′:4,5]pyrrolo[1,2-a]pyrazin-9(6H)-one]

pIC50 (human PDE4D3; [1]): 5.83
pIC50 (Human PDE4B1; [1]): 7.58
SMILES: N#Cc1ccc(-c2c3n(c4cccnc24)CCN(C2CC2)C3=O)cc1 [Example 43, 4-(8-Cyclopropyl-9-oxo-6,7,8,9-tetrahydropyrido[2′,3′:4,5]pyrrolo[1,2-a]pyrazin-10-yl)benzonitrile]

pIC50 (human PDE4D3; [1]): 6.37
pIC50 (Human PDE4B1; [1]): 8.18
SMILES: COc1ccc(-c2c3n(c4cccnc24)CCN(C2CC2)C3=O)cn1 [Example 53, 8-Cyclopropyl-10-(6-methoxypyridin-3-yl)-7,8-dihydropyrido[2′,3′:4,5]pyrrolo[1,2-a]pyrazin-9(6H)-one]

pIC50 (human PDE4D3; [1]): 6.60
pIC50 (Human PDE4B1; [1]): 8.26
SMILES: Cc1cc(Cl)ccc1-c1c2n(c3cccnc13)CCN(C1CC1)C2=O [Example 56, 10-(4-Chloro-2-methylphenyl)-8-cyclopropyl-7,8-dihydropyrido[2′,3′:4,5]pyrrolo[1,2-a]pyrazin-9(6H)-one]

pIC50 (human PDE4D3; [1]): < 4.52
pIC50 (Human PDE4B1; [1]): 6.48
SMILES: O=C1c2c(-c3ccc(F)cn3)c3ncccc3n2CCN1C1CC1 [Example 62, 8-Cyclopropyl-10-(5-fluoropyridin-2-yl)-7,8-dihydropyrido[2′,3′:4,5]pyrrolo[1,2-a]pyrazin-9(6H)-one]

pIC50 (human PDE4D3; [2]): < 4.52
pIC50 (Human PDE4A3): < 4.52
pIC50 (Human PDE4B1; [2]): < 4.52
SMILES: Cn1nc(-c2c3n(c4cccnc24)CCN(C2CC2)C3=O)nc1C(F)F [Example 90, 8-Cyclopropyl-10-(5-(difluoromethyl)-1-methyl-1H-1,2,4-triazol-3-yl)-7,8-dihydropyrido[2′,3′:4,5]pyrrolo[1,2-a]pyrazin-9(6H)-one]

pIC50 (human PDE4D3; [2]): < 4.52
pIC50 (Human PDE4B1; [2]): 4.82
SMILES: O=C1c2c(-n3cccn3)c3ncccc3n2CCN1C1CC1 [Example 92, 8-Cyclopropyl-10-(1H-pyrazol-1-yl)-7,8-dihydropyrido[2′,3′:4,5]pyrrolo[1,2-a]pyrazin-9(6H)-one]

From patent US11472805B2, “Tricyclic compounds and their use as phosphodiesterase inhibitors” (Pfizer Inc., priority 2015, dated 2022)
